Columns and labels:
Test in all cases: relative viability (nuclei count vs DMSO), 5 days (fraction); higher = more cells survive
[1] = system: 201T
Outline: (§1)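 Cells from lung cancer lines were seeded into 1536-well plates and, one day later, dosed by pin tool. Treatments were either a single drug or a fixed dose of an anchor drug with five library-drug doses (not always all listed) in √10 steps. After 5 days, nuclei were stained in a one-step fixation (final 0.05% Triton X-100, 1% formaldehyde, 1 ug/ml Hoechst) and counted on 4× images, and relative viability is the treated-to-vehicle nuclei ratio, as the median of duplicate plates.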

[2] = system: A-427
Outline: as §1

[3] = system: BEN
Outline: as §1

[4] = system: COR-L 105
Outline: as §1

[5] = system: COR-L23
Outline: as §1

[6] = system: EKVX
Outline: as §1

[7] = system: HARA
Outline: as §1

[8] = system: HCC-15
Outline: as §1

[9] = system: HCC-44
Outline: as §1

[10] = system: HCC-827
Outline: as §1

[11] = system: LK-2
Outline: as §1

[12] = system: NCI-H1437
Outline: as §1

[13] = system: NCI-H1666
Outline: as §1

[14] = system: NCI-H1792
Outline: as §1

[15] = system: NCI-H1975
Outline: as §1

[16] = system: NCI-H23
Outline: as §1

[17] = system: NCI-H358
Outline: as §1

[18] = system: NCI-H441
Outline: as §1

[19] = system: NCI-H596
Outline: as §1

[20] = system: NCI-H650
Outline: as §1

[21] = system: NCI-H838
Outline: as §1

[22] = system: SK-MES-1
Outline: as §1

In the case of Oc1nc(-c2ccc(C(F)(F)F)cc2)nc2c1CSCC2 [XAV939] + Cc1nc(NC(=O)N2CCC[C@H]2C(N)=O)sc1-c1ccnc(C(C)(C)C(F)(F)F)c1 [Alpelisib] (partner 2 µM), the relative viability ([1]; first compound 0.08 µM) is reported as 1, the relative viability ([1]; first compound 0.253 µM) is reported as 0.875 and the relative viability ([1]; first compound 0.8 µM) is reported as 0.947. For the same compound, the relative viability ([1]; first compound 2.53 µM) was 0.902, the relative viability ([2]; first compound 0.08 µM) was 1.12 and the relative viability ([2]; first compound 0.253 µM) was 1.03. It also gave a relative viability ([2]; first compound 0.8 µM) of 1.03, a relative viability ([2]; first compound 2.53 µM) of 1.02 and a relative viability ([3]; first compound 0.08 µM) of 1.08. For the same compound, the relative viability ([3]; first compound 0.253 µM) was 0.921, the relative viability ([3]; first compound 0.8 µM) was 1.01 and the relative viability ([4]; first compound 0.08 µM) was 1.14. For the same compound, the relative viability ([4]; first compound 0.253 µM) was 0.867, the relative viability ([4]; first compound 0.8 µM) was 0.952 and the relative viability ([4]; first compound 2.53 µM) was 0.576. For the same compound, the relative viability ([5]; first compound 0.08 µM) was 1, the relative viability ([5]; first compound 0.253 µM) was 0.73 and the relative viability ([5]; first compound 0.8 µM) was 0.772. For the same compound, the relative viability ([5]; first compound 2.53 µM) was 0.576, the relative viability ([6]; first compound 0.08 µM) was 0.825 and the relative viability ([6]; first compound 0.253 µM) was 0.67. It also gave a relative viability ([6]; first compound 0.8 µM) of 0.731, a relative viability ([6]; first compound 2.53 µM) of 0.548 and a relative viability ([7]; first compound 0.08 µM) of 1.02. It also gave a relative viability ([7]; first compound 0.253 µM) of 0.643, a relative viability ([7]; first compound 0.8 µM) of 0.842 and a relative viability ([7]; first compound 2.53 µM) of 0.709. For the same compound, the relative viability ([8]; first compound 0.08 µM) was 1, the relative viability ([8]; first compound 0.253 µM) was 0.939 and the relative viability ([8]; first compound 0.8 µM) was 0.925. For the same compound, the relative viability ([8]; first compound 2.53 µM) was 0.946, the relative viability ([9]; first compound 0.08 µM) was 0.953 and the relative viability ([9]; first compound 0.253 µM) was 0.675. For the same compound, the relative viability ([9]; first compound 0.8 µM) was 0.775, the relative viability ([9]; first compound 2.53 µM) was 0.737 and the relative viability ([10]; first compound 0.08 µM) was 1.04. It also gave a relative viability ([10]; first compound 0.253 µM) of 0.934, a relative viability ([10]; first compound 0.8 µM) of 0.967 and a relative viability ([10]; first compound 2.53 µM) of 0.969. It also gave a relative viability ([11]; first compound 0.08 µM) of 1.03, a relative viability ([11]; first compound 0.253 µM) of 1.02 and a relative viability ([11]; first compound 0.8 µM) of 1.1. It also gave a relative viability ([11]; first compound 2.53 µM) of 0.923, a relative viability ([12]; first compound 0.08 µM) of 1.03 and a relative viability ([12]; first compound 0.253 µM) of 0.709. The relative viability ([12]; first compound 0.8 µM) was 0.97, the relative viability ([12]; first compound 2.53 µM) was 0.715 and the relative viability ([13]; first compound 0.08 µM) was 0.87. For the same compound, the relative viability ([13]; first compound 0.253 µM) was 0.63, the relative viability ([13]; first compound 0.8 µM) was 0.721 and the relative viability ([13]; first compound 2.53 µM) was 0.591. It also gave a relative viability ([14]; first compound 0.08 µM) of 0.924, a relative viability ([14]; first compound 0.253 µM) of 0.667 and a relative viability ([14]; first compound 0.8 µM) of 0.671. For the same compound, the relative viability ([14]; first compound 2.53 µM) was 0.594, the relative viability ([15]; first compound 0.08 µM) was 0.619 and the relative viability ([15]; first compound 0.253 µM) was 0.573. For the same compound, the relative viability ([15]; first compound 0.8 µM) was 0.566, the relative viability ([15]; first compound 2.53 µM) was 0.445 and the relative viability ([16]; first compound 0.08 µM) was 0.663. It also gave a relative viability ([16]; first compound 0.253 µM) of 0.659, a relative viability ([16]; first compound 0.8 µM) of 0.627 and a relative viability ([16]; first compound 2.53 µM) of 0.456. The relative viability ([17]; first compound 0.08 µM) was 0.815, the relative viability ([17]; first compound 0.253 µM) was 0.671 and the relative viability ([17]; first compound 0.8 µM) was 0.915. For the same compound, the relative viability ([17]; first compound 2.53 µM) was 0.591, the relative viability ([18]; first compound 0.08 µM) was 0.687 and the relative viability ([18]; first compound 0.253 µM) was 0.486. It also gave a relative viability ([18]; first compound 0.8 µM) of 0.742, a relative viability ([18]; first compound 2.53 µM) of 0.657 and a relative viability ([19]; first compound 0.08 µM) of 0.456. It also gave a relative viability ([19]; first compound 0.253 µM) of 0.587, a relative viability ([19]; first compound 0.8 µM) of 0.534 and a relative viability ([19]; first compound 2.53 µM) of 0.493. It also gave a relative viability ([20]; first compound 0.08 µM) of 1.3, a relative viability ([20]; first compound 0.253 µM) of 0.959 and a relative viability ([20]; first compound 0.8 µM) of 1.15. For the same compound, the relative viability ([20]; first compound 2.53 µM) was 0.864, the relative viability ([21]; first compound 0.08 µM) was 1.08 and the relative viability ([21]; first compound 0.253 µM) was 0.849. The relative viability ([21]; first compound 0.8 µM) was 0.909, the relative viability ([21]; first compound 2.53 µM) was 0.604 and the relative viability ([22]; first compound 0.08 µM) was 0.994. The relative viability ([22]; first compound 0.253 µM) was 0.912, the relative viability ([22]; first compound 0.8 µM) was 0.911 and the relative viability ([22]; first compound 2.53 µM) was 0.757.
